Measured values: patent US20240109839A1, “NOVEL COMPOUND EXHIBITING ANTI-INFLAMMATORY ACTIVITY AS P38 MAP KINASE INHIBITOR” (PRAZERTHERAPEUTICS INC., priority 2021, published 2024)

How the values were obtained:
[1] = target: p38 alpha (Homo sapiens, UniProt Q16539); test: Evaluation of inhibitory ability of p38a mitogen-activated protein kinase (MAPK); format: biochemical; details: Serine/Threonine 15 peptide, 1 hour at room temperature, read at 445 nm and 520 nm
Description: To identify the ability to inhibit p38 MAPK, compounds 1 to 15 were diluted to identify the inhibitory effect according to concentration. Briefly, the compounds were diluted at concentrations of […], respectively, and then a peptide/kinase mixture (final 7.07-28.3 ng p38 alpha, 2 μM Serine/Threonine 15, 50 mM HEPES pH 7.0, 0.01% NaN3) and ATP solution were added. After carrying out a reaction at room temperature for 1 hour, a development reagent was added, and a reaction was performed again at room temperature for 1 hour.

[2] = target: T1, p-p38 MAPK (Mus musculus, UniProt P47811); test: Evaluation of p38 MAPK protein inhibitory ability in cells (p-p38 immunoblot); format: cell-based; details: 10 μM compound, 24 hours; for p-p38 inhibition %: Raw264.7 cells, 10 µM; for inhibition at 10 µM: RAW264.7, Raw264.7 cells
T1 construct: endogenous in cells; host or cells: Raw264.7
Description: To identify inhibition of p-p38 MAPK, inhibition of p38 MAPK was identified after each compound was treated to Raw264.7 cells obtained by transforming macrophages into cancerous cells that cause inflammation according to p-p38 MAPK activity. Briefly, Raw264.7 cells were cultured in Dulbecco's modified Eagle Medium supplemented with 10% fetal bovine serum and penicillin/streptomycin (100 U/ml). Raw 264.7 cells were treated with 10 μM of compounds 1 to 15 according to the present disclosure in a petri dish respectively, followed by culture in a CO2 incubator for 24 hours. The effect of each compound on inhibition of p-p38 MAPK in cells was identified through protein immunoblot.
After completion of cell culture under the experimental conditions, washing was performed with cold phosphate buffered saline (PBS). The cells were then collected and centrifuged at 1200 rpm for 3 minutes. The precipitate was dissolved in cells with 2× sample buffer (1M Tris-HCl pH 6.8, 50% glycerol, 10% SDS, 2-mercaptoethanol, 1% bromophenol blue) and boiled at 100° C. for 10 minutes. The prepared protein samples were subjected to sodium dodecyl sulfate poly acrylamide gel electrophoresis and then transferred to PVDF membrane (Millipore). Blocking was performed in a 5% bovine serum albumin (BSA, RMbio) solution for a specific coupling reaction between the protein on the PVDF membrane and antibody. The BSA solution was then discarded, and the membrane was washed with PBS-T (0.5% tween 20 in PBS). The coupling reaction between the protein on the membrane and antibody was carried out overnight at 4° C., followed by washing again with PBS-T. Finally, a secondary antibody (Cell signaling Technology) conjugated with horseradish peroxidase (HRP) was diluted in PBS-T, and a reaction was carried out at room temperature for 2 hours. Luminata Forte HRP substrate (Millipore) was used to determine the protein amount on the membrane.

[3] = tested on: Raw264.7 cells; test: Evaluation of nitric oxide inhibitory ability according to cellular inflammatory response (Griess reagent); format: cell-based; details: 10 μM compound, 550 nm; for NO inhibition (%): 24 hours, 10 µM; for inhibition at 10 µM: Mus musculus, RAW264.7, 24 h, read-out: NO inhibition (%)
Description: In order to identify an inflammatory inhibitory effect upon inhibition of p-p38 MAPK, each compound was treated to Raw264.7 cells obtained by transforming macrophages into cancerous cells involved in the inflammatory response, so as to identify inhibition of inflammation due to inhibition of p38 MAPK. Briefly, Raw264.7 cells were cultured in Dulbecco's Modified Eagle Medium supplemented with 10% fetal bovine serum and penicillin/streptomycin (100 U/ml). Raw 264.7 cells were treated with 10 μM of compounds 1 to 15 according to the present disclosure in a petri dish respectively, followed by culture in a CO2 incubator for 24 hours.
After completion of cell culture under experimental conditions, the supernatant was obtained and centrifuged at 1200 rpm for 3 minutes. The centrifuged supernatant was mixed with Griess reagent (1% sulfanilamide, 0.1% N-(1-naphthyl)ethylenediamine dihydrochloride, 5% phosphoric acid) at 1:1 and then a reaction was performed for 10 minutes under shaded condition. The concentration of nitric oxide was determined at a wavelength of 550 nm.

Chain of p38 alpha (Q16539 whole entry): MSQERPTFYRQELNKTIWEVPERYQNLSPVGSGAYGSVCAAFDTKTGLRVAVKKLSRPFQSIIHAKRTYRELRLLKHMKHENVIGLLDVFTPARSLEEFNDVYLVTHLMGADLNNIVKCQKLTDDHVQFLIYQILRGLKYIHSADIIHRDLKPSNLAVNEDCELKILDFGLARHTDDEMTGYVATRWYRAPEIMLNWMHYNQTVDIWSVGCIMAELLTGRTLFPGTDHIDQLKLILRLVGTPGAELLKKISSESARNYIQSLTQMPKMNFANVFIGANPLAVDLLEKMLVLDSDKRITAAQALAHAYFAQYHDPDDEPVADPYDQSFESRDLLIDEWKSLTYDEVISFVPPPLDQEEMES
T1 sequence (P47811 whole entry): as the sequence (Q16539 whole entry) above, with L48H, T263A counted along it

| IC50 [1] [nM] | p-p38 inhibition % [2] [%] | inhibition at 10 µM [2] [%] | SMILES | NO inhibition (%) [3] [%] | inhibition at 10 µM [3] [%] |
| --- | --- | --- | --- | --- | --- |
| 58.4 | 64.1 |  | Cc1ccc(C(=O)NC2CC2)cc1-c1ccc(C(=O)C2CCC(OCCO)C2)cc1 (stereo not drawn) [11 (anti isomer), N-cyclopropyl-4′-(3-(2-hydroxyethoxy)cyclopentanecarbonyl)-6-methyl-[1,1′-biphenyl]-3-carboxamide] | 11.0 |  |
| 27.8 | 41.9 |  | Cc1ccc(C(=O)NC2CC2)cc1-c1ccc(C(=O)C2CCC(OCCO)C2)cc1 (stereo not drawn) [11 (syn isomer), N-cyclopropyl-4′-(3-(2-hydroxyethoxy)cyclopentanecarbonyl)-6-methyl-[1,1′-biphenyl]-3-carboxamide] | 30.6 |  |
| 71.8 |  |  | Cc1ccc(C(=O)NC2CC2)cc1-c1ccc(C(=O)C(C)(C)O)cc1 [Compound 1, N-cyclopropyl-4′-(2-hydroxy-2-methylpropanoyl)-6-methyl-[1,1′-biphenyl]-3-carboxamide] |  |  |
| 21.9 |  |  | COCCC(C)C(=O)c1ccc(-c2cc(C(=O)NC3CC3)ccc2C)cc1 (stereo not drawn) [Compound 2, N-cyclopropyl-4′-(4-methoxy-2-methylbutanoyl)-6-methyl-[1,1′-biphenyl]-3-carboxamide] |  |  |
| 50.7 |  |  | COCCCC(C)C(=O)c1ccc(-c2cc(C(=O)NC3CC3)ccc2C)cc1 (stereo not drawn) [Compound 3, N-cyclopropyl-4′-(5-methoxy-2-methylpentanoyl)-6-methyl-[1,1′-biphenyl]-3-carboxamide] |  |  |
| 39.2 |  | 20.9 | Cc1ccc(C(=O)NC2CC2)cc1-c1ccc(C(=O)C2CC2)cc1 [Compound 4, 4′-(cyclopropanecarbonyl)-N-cyclopropyl-6-methyl-[1,1′-biphenyl]-3-carboxamide] |  | 26 |
| 86.7 |  | 80.4 | Cc1ccc(C(=O)NC2CC2)cc1-c1ccc(C(=O)C2CCC2)cc1 [Compound 5, 4′-(cyclobutanecarbonyl)-N-cyclopropyl-6-methyl-[1,1′-biphenyl]-3-carboxamide] |  | 11.9 |
| 128 |  | 76.2 | Cc1ccc(C(=O)NC2CC2)cc1-c1ccc(C(=O)C2CCCC2)cc1 [Compound 6, 4′-(cyclopentanecarbonyl)-N-cyclopropyl-6-methyl-[1,1′-biphenyl]-3-carboxamide] |  | 24 |
| 72.6 |  | 87.6 | Cc1ccc(C(=O)NC2CC2)cc1-c1ccc(C(=O)C2CCCCC2)cc1 [Compound 7, 4′-(cyclohexanecarbonyl)-N-cyclopropyl-6-methyl-[1,1′-biphenyl]-3-carboxamide] |  | 15.5 |
| 46.6 |  | 83 | Cc1ccc(C(=O)NC2CC2)cc1-c1ccc(C(=O)C2CCCCCC2)cc1 [Compound 8, 4′-(cycloheptanecarbonyl)-N-cyclopropyl-6-methyl-[1,1′-biphenyl]-3-carboxamide] |  | 43.6 |
| 46.5 |  | 81.7 | Cc1ccc(C(=O)NC2CC2)cc1-c1ccc(C(=O)C2CC=CC2)cc1 [Compound 9, 4′-(cyclopent-3-enecarbonyl)-N-cyclopropyl-6-methyl-[1,1′-biphenyl]-3-carboxamide] |  | 21.1 |
| 22.5 |  | 44.7 | Cc1ccc(C(=O)NC2CC2)cc1-c1ccc(C(=O)C2CCC(O)C2)cc1 (stereo not drawn) [Compound 10, N-cyclopropyl-4′-(3-hydroxycyclopentanecarbonyl)-6-methyl-[1,1′-biphenyl]-3-carboxamide] |  | 11.1 |
| 21.8 |  |  | COCCOC1CCC(C(=O)c2ccc(-c3cc(C(=O)NC4CC4)ccc3C)cc2)C1 (stereo not drawn) [Compound 12, N-cyclopropyl-4′-(3-(2-methoxyethoxy)cyclopentane-1-carbonyl)-6-methyl-[1,1′-biphenyl]-3-carboxamide] |  |  |
| 50.8 |  |  | Cc1ccc(C(=O)NC2CC2)cc1-c1ccc(C(=O)C(C)O)cc1 (stereo not drawn) [Compound 13, N-cyclopropyl-4′-(2-hydroxypropanoyl)-6-methyl-[1,1′-biphenyl]-3-carboxamide] |  |  |
| 158 |  | 79.2 | COCCN1CCC(C(=O)c2ccc(-c3cc(C(=O)NC4CC4)ccc3C)cc2)C1 (stereo not drawn) [Compound 15, N-cyclopropyl-4′-(1-(2-methoxyethyl)pyrrolidine-3-carbonyl)-6-methyl-[1,1′-biphenyl]-3-carboxamide] |  |  |

| SMILES | IC50 [1] [nM] | p-p38 inhibition % [2] [%] | inhibition at 10 µM [2] [%] | NO inhibition (%) [3] [%] | inhibition at 10 µM [3] [%] |
| --- | --- | --- | --- | --- | --- |
| Cc1ccc(C(=O)NC2CC2)cc1-c1ccc(C(=O)C2CCNC2)cc1 (stereo not drawn) [Compound 14, N-cyclopropyl-6-methyl-4′-(pyrrolidine-3-carbonyl)-[1,1′-biphenyl]-3-carboxamide] | 126 |  | 88.6 |  |  |
